The values that follow come from ChEMBL document CHEMBL1201862, “PubChem BioAssay data set” (2004).

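How tested: cells in 96-well plates exposed to compound for 48 hours at five concentrations. At the GI50, growth is halved.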 Calls of active or inactive are those of the source. Cut-off read from the data, not from the text of the source: active = GI50 up to about 1.1 µM and inactive = higher. Bounds are passed on as bounds.

Some test systems named below: SK-MEL-5; HL-60; A549; SF-268; EKVX; NCI-H23; LOX IMVI; SK-MEL-2; Hs-578T; CCRF-CEM; M14; OVCAR-8; UACC-62; SN12C; HT-29; Malme-3M; ACHN; CAKI-1; RPMI-8226; BT-549.
What all share (assay): NCI-60 cell line screen, 48 h

For `O=C(Cc1nc2ncccc2[nH]c1=O)c1c[nH]c2ccccc12`, the GI50 is 23.1 µM (inactive) in the assay on SK-MEL-5; 32.1 µM (inactive) with HL-60; 20 µM (inactive) with A549; 14.9 µM (inactive) in the assay with SF-268; 21.4 µM (inactive) with EKVX; 21.6 µM (inactive) with NCI-H23. Besides, the GI50 was 20.7 µM (inactive) with LOX IMVI; 14.9 µM (inactive) with SK-MEL-2; 18.6 µM (inactive) in the assay with Hs-578T; 13.4 µM (inactive) with CCRF-CEM; 21 µM (inactive) with M14; 23.4 µM (inactive) with OVCAR-8. Moreover, the GI50 was 16.8 µM (inactive) with UACC-62; 18.2 µM (inactive) with SN12C; 23 µM (inactive) in the assay with HT-29; 17.6 µM (inactive) in the assay with Malme-3M; 16.5 µM (inactive) in the assay with ACHN; 17.4 µM (inactive) in the assay with CAKI-1. The GI50 is 16.7 µM (inactive) with RPMI-8226 and 29.4 µM (inactive) with BT-549.

For `COc1cc(O)c2c(O)c3c(c4c2c1[C@]1(C4)C(C)=CCCC1(C)C)[C@H](O)[C@@]1(O)CC(O)=C(C(N)=O)C(=O)[C@@]1(O)C3=O`, the GI50 in the assay with SK-MEL-5 was 0.175 µM (active); in the assay with HL-60, 0.164 µM (active); in the assay on A549, 0.0499 µM (active); in the assay with SF-268, 0.269 µM (active); in the assay with EKVX, 0.18 µM (active); in the assay on NCI-H23, 0.164 µM (active). Besides, the GI50 with LOX IMVI is 0.305 µM (active); with SK-MEL-2, 0.236 µM (active); in the assay with Hs-578T, 0.147 µM (active); in the assay on CCRF-CEM it was 0.0326 µM (active); in the assay with M14, 0.126 µM (active); with OVCAR-8, 0.113 µM (active). In addition, the GI50 in the assay on UACC-62 was 0.573 µM (active); in the assay with SN12C, 0.0531 µM (active); in the assay with HT-29, 0.0615 µM (active); in the assay with Malme-3M, 0.158 µM (active); in the assay on ACHN, 0.209 µM (active); with CAKI-1, 0.294 µM (active). The GI50 is 0.0612 µM (active) with RPMI-8226 and 0.318 µM (active) in the assay on BT-549.

On to `C#C[C@]1(O)CC[C@H]2[C@@H]3CCc4cc(OC(=O)c5cccc6cc7ccccc7nc56)ccc4[C@H]3CC[C@@]21C`, for which the GI50 in the assay with SK-MEL-5 is 13.6 µM (inactive); in the assay on HL-60, 8.75 µM (inactive); in the assay on A549, 34 µM (inactive); in the assay on SF-268 it was 67.5 µM (inactive); in the assay with EKVX, 12.9 µM (inactive); in the assay on NCI-H23, 40.3 µM (inactive). The GI50 is 20.5 µM (inactive) in the assay on LOX IMVI; 29.2 µM (inactive) with SK-MEL-2; 25.6 µM (inactive) in the assay on Hs-578T; 12.8 µM (inactive) in the assay with CCRF-CEM; 31 µM (inactive) with M14; 40.8 µM (inactive) in the assay with OVCAR-8. Also, the GI50 with UACC-62 was 28.5 µM (inactive); in the assay with SN12C it was 20.9 µM (inactive); with HT-29 it was 33.9 µM (inactive); in the assay with Malme-3M, 6.44 µM (inactive); in the assay on ACHN, 49 µM (inactive); with CAKI-1 it was 23 µM (inactive). In addition, the GI50 was 22 µM (inactive) in the assay on RPMI-8226 and 74 µM (inactive) with BT-549.

As to `CCOc1ccc(NC(=O)C(=O)Nn2c(N)nnc2N)cc1`, the GI50 with SK-MEL-5, with HL-60, in the assay with A549, with SF-268, in the assay on EKVX and in the assay with NCI-H23 was > 100 µM (inactive) each time. Besides, the GI50 with LOX IMVI, in the assay on SK-MEL-2, in the assay with Hs-578T, with CCRF-CEM, with M14 and in the assay with OVCAR-8 was > 100 µM (inactive) throughout. Moreover, the GI50 in the assay on UACC-62, with SN12C, with HT-29, in the assay on Malme-3M, in the assay on ACHN and with CAKI-1 was > 100 µM (inactive) in each case. The GI50 in the assay with RPMI-8226 and with BT-549 was > 100 µM (inactive) in each case.

With `CCCCCCCCCCc1c2nc(c(CCCCCCCCCC)c3ccc([nH]3)c(CCCCCCCCCC)c3nc(c(CCCCCCCCCC)c4ccc1[nH]4)C=C3)C=C2`, the GI50 in the assay with SK-MEL-5, in the assay with HL-60, in the assay on A549, in the assay with SF-268, with EKVX and in the assay on NCI-H23 was > 100 µM (inactive) each time. Further, the GI50 in the assay with LOX IMVI was > 100 µM (inactive); in the assay on SK-MEL-2 it was > 100 µM (inactive); in the assay on Hs-578T, 30 µM (inactive); in the assay on CCRF-CEM, > 100 µM (inactive); in the assay with M14 it was > 100 µM (inactive); with OVCAR-8, > 100 µM (inactive). Moreover, the GI50 in the assay with UACC-62, in the assay on SN12C, in the assay with HT-29, with Malme-3M, with ACHN and with CAKI-1 was > 100 µM (inactive) in each case. Further, the GI50 with RPMI-8226 and in the assay with BT-549 was > 100 µM (inactive) in each case.

For the compound `O=c1[nH]nc(Cc2ccccc2)n1/N=C\CC/C=N\n1c(Cc2ccccc2)n[nH]c1=O`, the GI50 in the assay with SK-MEL-5 was 29.2 µM (inactive); in the assay with HL-60, 21.9 µM (inactive); in the assay on A549 it was > 100 µM (inactive); in the assay on SF-268, 23.8 µM (inactive); with EKVX, 36.6 µM (inactive); with NCI-H23 it was 23 µM (inactive). Also, the GI50 in the assay with LOX IMVI is 15.7 µM (inactive); in the assay on SK-MEL-2, 31.3 µM (inactive); in the assay with Hs-578T, 20.2 µM (inactive); with CCRF-CEM, 12.5 µM (inactive); in the assay with M14, 44.9 µM (inactive); in the assay on OVCAR-8, 23.1 µM (inactive). Further, the GI50 is 16.8 µM (inactive) in the assay on UACC-62; > 100 µM (inactive) in the assay on SN12C; 23.4 µM (inactive) in the assay with HT-29; 24.7 µM (inactive) in the assay on Malme-3M; 49.9 µM (inactive) in the assay on ACHN; > 100 µM (inactive) in the assay on CAKI-1. Besides, the results for the GI50 with RPMI-8226 and with BT-549 were 21.5 µM (inactive) and 25.8 µM (inactive), respectively.
